Source: publication PMC5218480 (PLoS ONE, 2017)

System: MV-4-11 cells
Experiment: Gene expression microarray analysis (Affymetrix PrimeView) and GSEA
Type: cell-based, human
Design: RFU PODN (11730768_x_at) / Fold change /veh PODN (11730768_x_at) / RFU LINC00158 (11744669_a_at) / Fold change /veh LINC00158 (11744669_a_at) / RFU DUSP10 (11751237_a_at) / Fold change /veh DUSP10 (11751237_a_at) / RFU ID3 (11757404_x_at) / Fold change /veh ID3 (11757404_x_at) / RFU PLEKHG5 (11737974_s_at) / Fold change /veh PLEKHG5 (11737974_s_at) / RFU LRRC4B (11730491_at) / Fold change /veh LRRC4B (11730491_at) / RFU GIMAP4 (11747438_a_at) / Fold change /veh GIMAP4 (11747438_a_at) / RFU KRT8 (11758183_x_at) / Fold change /veh KRT8 (11758183_x_at) / RFU CNN1 (11734310_a_at) / Fold change /veh CNN1 (11734310_a_at) / RFU VPS37D (11726825_at) / Fold change /veh VPS37D (11726825_at) / RFU C10orf10 (11716522_x_at) / Fold change /veh C10orf10 (11716522_x_at) / RFU KIR2DL2 /// KIR2DL4 /// KIR2DL5A /// KIR2DL5B /// KIR2DS1 /// KIR2DS2 /// KIR2DS3 /// KIR2DS4 /// KIR3DL3 /// KIR3DL3 /// KIR3DS1 (11738374_at) / Fold change /veh KIR2DL2 /// KIR2DL4 /// KIR2DL5A /// KIR2DL5B /// KIR2DS1 /// KIR2DS2 /// KIR2DS3 /// KIR2DS4 /// KIR3DL3 /// KIR3DL3 /// KIR3DS1 (11738374_at) / RFU C1QL1 (11718748_at) / Fold change /veh C1QL1 (11718748_at) / RFU TMPRSS4 (11747572_a_at) / Fold change /veh TMPRSS4 (11747572_a_at) / RFU HAMP (11756126_x_at) / Fold change /veh HAMP (11756126_x_at) / RFU RNFT2 (11725882_a_at) / Fold change /veh RNFT2 (11725882_a_at) / RFU NR4A2 (11747474_a_at) / Fold change /veh NR4A2 (11747474_a_at) / RFU ABCC12 (11746883_a_at) / Fold change /veh ABCC12 (11746883_a_at) / RFU TMEM136 (11760407_x_at) / Fold change /veh TMEM136 (11760407_x_at) / RFU CLDN22 /// WWC2 (11732394_at) / Fold change /veh CLDN22 /// WWC2 (11732394_at) / RFU HLA-DPB1 (11760878_x_at) / Fold change /veh HLA-DPB1 (11760878_x_at) / RFU SPINT1 (11716480_a_at) / Fold change /veh SPINT1 (11716480_a_at) / RFU GAP43 (11754022_s_at) / Fold change /veh GAP43 (11754022_s_at) / RFU A4GNT (11735810_at) / Fold change /veh A4GNT (11735810_at) / RFU PRB3 (11715151_x_at) / Fold change /veh PRB3 (11715151_x_at) / RFU TUBB4B (11761932_at) / Fold change /veh TUBB4B (11761932_at) / RFU CAPN14 (11732068_a_at) / Fold change /veh CAPN14 (11732068_a_at) / RFU TMCC2 (11721928_a_at) / Fold change /veh TMCC2 (11721928_a_at) / RFU IRGQ (11745062_a_at) / Fold change /veh IRGQ (11745062_a_at) / RFU FAM174B (11720279_a_at) / Fold change /veh FAM174B (11720279_a_at) / RFU TMPRSS4 (11748680_a_at) / Fold change /veh TMPRSS4 (11748680_a_at) / RFU FAM212B (11763350_a_at) / Fold change /veh FAM212B (11763350_a_at) / RFU PLEKHG5 (11743358_a_at) / Fold change /veh PLEKHG5 (11743358_a_at) / RFU ZSCAN30 (11745921_a_at) / Fold change /veh ZSCAN30 (11745921_a_at) / RFU CMKLR1 (11741424_a_at) / Fold change /veh CMKLR1 (11741424_a_at) / RFU LOC101060620 /// MAPK8IP1 (11723275_at) / Fold change /veh LOC101060620 /// MAPK8IP1 (11723275_at) / RFU SPTSSB (11747773_x_at) / Fold change /veh SPTSSB (11747773_x_at) / RFU PRSS12 (11739890_at) / Fold change /veh PRSS12 (11739890_at) / RFU BIN1 (11741810_x_at) / Fold change /veh BIN1 (11741810_x_at) / RFU WNT11 (11732464_a_at) / Fold change /veh WNT11 (11732464_a_at) / RFU C10orf10 (11716521_a_at) / Fold change /veh C10orf10 (11716521_a_at) / RFU C5orf56 (11738089_at) / Fold change /veh C5orf56 (11738089_at) / RFU CYB561 (11721691_x_at) / Fold change /veh CYB561 (11721691_x_at) / RFU ANKRD19P (11752326_a_at) / Fold change /veh ANKRD19P (11752326_a_at) / RFU OR2T12 /// OR2T33 /// OR2T8 (11738714_s_at) / Fold change /veh OR2T12 /// OR2T33 /// OR2T8 (11738714_s_at) / RFU VCAN (11748164_a_at) / Fold change /veh VCAN (11748164_a_at) / RFU JSRP1 (11732532_at) / Fold change /veh JSRP1 (11732532_at) / RFU KRTAP10-11 (11738290_x_at) / Fold change /veh KRTAP10-11 (11738290_x_at) / RFU MYO3A (11730013_a_at) / Fold change /veh MYO3A (11730013_a_at) / RFU EBF3 (11725865_a_at) / Fold change /veh EBF3 (11725865_a_at) / RFU CAMK2N1 (11719241_x_at) / Fold change /veh CAMK2N1 (11719241_x_at) / RFU C5orf56 (11738088_a_at) / Fold change /veh C5orf56 (11738088_a_at) / RFU OLFML3 (11715873_a_at) / Fold change /veh OLFML3 (11715873_a_at) / RFU LOC100653217 /// NTM (11731650_a_at) / Fold change /veh LOC100653217 /// NTM (11731650_a_at) / RFU MAPK11 (11762145_a_at) / Fold change /veh MAPK11 (11762145_a_at) / RFU FIZ1 (11724087_x_at) / Fold change /veh FIZ1 (11724087_x_at) / RFU OASL (11726364_x_at) / Fold change /veh OASL (11726364_x_at) / RFU SOX15 (11748057_x_at) / Fold change /veh SOX15 (11748057_x_at) / RFU CD79A (11719716_a_at) / Fold change /veh CD79A (11719716_a_at) / RFU HIST1H1D (11736915_at) / Fold change /veh HIST1H1D (11736915_at) / RFU CASKIN2 (11723855_a_at) / Fold change /veh CASKIN2 (11723855_a_at) / RFU LOC730098 (11760151_x_at) / Fold change /veh LOC730098 (11760151_x_at) / RFU OR4N2 (11742367_at) / Fold change /veh OR4N2 (11742367_at) / RFU PRRT2 (11749266_a_at) / Fold change /veh PRRT2 (11749266_a_at) / RFU SNX32 (11753110_a_at) / Fold change /veh SNX32 (11753110_a_at) / RFU CDHR5 (11726645_a_at) / Fold change /veh CDHR5 (11726645_a_at) / RFU RCAN1 (11760418_a_at) / Fold change /veh RCAN1 (11760418_a_at) / RFU FAM167A (11723789_a_at) / Fold change /veh FAM167A (11723789_a_at) / RFU FAM26E (11764081_at) / Fold change /veh FAM26E (11764081_at) / RFU ISYNA1 (11749810_s_at) / Fold change /veh ISYNA1 (11749810_s_at) / RFU ACY1 (11761880_at) / Fold change /veh ACY1 (11761880_at) / RFU 11764098_at / Fold change /veh 11764098_at / RFU SAMD14 (11745864_x_at) / Fold change /veh SAMD14 (11745864_x_at) / RFU NPB (11741838_a_at) / Fold change /veh NPB (11741838_a_at) / RFU TMPRSS6 (11731388_a_at) / Fold change /veh TMPRSS6 (11731388_a_at) / RFU KRTAP10-2 (11738614_at) / Fold change /veh KRTAP10-2 (11738614_at) / RFU ARHGAP8 /// PRR5-ARHGAP8 (11727945_x_at) / Fold change /veh ARHGAP8 /// PRR5-ARHGAP8 (11727945_x_at) / RFU KRTAP5-7 /// NADSYN1 (11734609_at) / Fold change /veh KRTAP5-7 /// NADSYN1 (11734609_at) / RFU RASL12 (11751679_a_at) / Fold change /veh RASL12 (11751679_a_at) / RFU CDKN2B (11736163_a_at) / Fold change /veh CDKN2B (11736163_a_at) / RFU PRF1 (11729649_at) / Fold change /veh PRF1 (11729649_at) / RFU, ZNF638 /// ZNF638-IT1 / Fold change vs veh, ZNF638 /// ZNF638-IT1 / RFU, PANK3 / Fold change vs veh, PANK3 / RFU, SH3YL1 / Fold change vs veh, SH3YL1 / RFU, ZEB2 / Fold change vs veh, ZEB2 / RFU, NRIP1 / Fold change vs veh, NRIP1 / RFU, PTTG1IP / Fold change vs veh, PTTG1IP / RFU, CAPN2 / Fold change vs veh, CAPN2 / RFU, MED14 / Fold change vs veh, MED14 / RFU, SNORA58 / Fold change vs veh, SNORA58 / RFU, C1orf63 / Fold change vs veh, C1orf63 / RFU, LRRFIP1 / Fold change vs veh, LRRFIP1 / RFU, NDUFAF7 / Fold change vs veh, NDUFAF7 / RFU, SLC12A2 / Fold change vs veh, SLC12A2 / RFU, IBTK / Fold change vs veh, IBTK / RFU, ESF1 / Fold change vs veh, ESF1 / Fold change vs veh, TMEM50B / RFU, TAOK1 / Fold change vs veh, TAOK1 / RFU, ACBD3 / Fold change vs veh, ACBD3 / RFU, TMA16 / Fold change vs veh, TMA16 / RFU, RWDD3 / Fold change vs veh, RWDD3 / RFU, BCAT1 / Fold change vs veh, BCAT1 / RFU, EDEM3 / Fold change vs veh, EDEM3 / RFU, TMEM33 / Fold change vs veh, TMEM33 / RFU, WDR75 / Fold change vs veh, WDR75 / RFU, AHCTF1 / Fold change vs veh, AHCTF1 / RFU, TFRC / Fold change vs veh, TFRC / RFU, ZDHHC17 / Fold change vs veh, ZDHHC17 / RFU, NOM1 / Fold change vs veh, NOM1 / RFU, ARL8B / Fold change vs veh, ARL8B / RFU, ZBTB11 / Fold change vs veh, ZBTB11 / RFU, TAMM41 / Fold change vs veh, TAMM41 / RFU, KIAA1704 /// LOC100996395 / Fold change vs veh, KIAA1704 /// LOC100996395 / RFU, ING1 / Fold change vs veh, ING1 / RFU, TRMT61B / Fold change vs veh, TRMT61B / RFU, FUBP3 / Fold change vs veh, FUBP3 / RFU, TP53 / Fold change vs veh, TP53 / RFU, TNKS2 / Fold change vs veh, TNKS2 / RFU, ZFP14 / Fold change vs veh, ZFP14 / RFU, ACTR2 / Fold change vs veh, ACTR2 / RFU, PPP3R1 / Fold change vs veh, PPP3R1 / RFU, PIK3R1 / Fold change vs veh, PIK3R1 / RFU, HNRNPA1 / Fold change vs veh, HNRNPA1 / RFU, RNF170 / Fold change vs veh, RNF170 / RFU, ZNF28 / Fold change vs veh, ZNF28 / RFU, RNGTT / Fold change vs veh, RNGTT / RFU, OGT / Fold change vs veh, OGT / RFU, BRD1 / Fold change vs veh, BRD1 / RFU, MARS / Fold change vs veh, MARS / RFU, ZNF655 / Fold change vs veh, ZNF655 / RFU, FAHD1 / Fold change vs veh, FAHD1 / RFU, BDP1 / Fold change vs veh, BDP1 / RFU, LRRCC1 / Fold change vs veh, LRRCC1 / RFU, ARID1A / Fold change vs veh, ARID1A / RFU, ZNF146 / Fold change vs veh, ZNF146 / RFU, ZNF330 / Fold change vs veh, ZNF330 / RFU, GPN3 / Fold change vs veh, GPN3 / RFU, C9orf123 / Fold change vs veh, C9orf123 / RFU, N4BP2L2 / Fold change vs veh, N4BP2L2 / RFU, ARFIP1 / Fold change vs veh, ARFIP1 / RFU, FAM179B / Fold change vs veh, FAM179B / RFU, BCL10 / Fold change vs veh, BCL10 / RFU, UHRF1BP1L / Fold change vs veh, UHRF1BP1L / RFU, BET1 / Fold change vs veh, BET1 / RFU, CNOT2 / Fold change vs veh, CNOT2 / RFU, ZNF268 / Fold change vs veh, ZNF268 / Fold change vs veh, ZNF507 / RFU, DGCR2 / Fold change vs veh, DGCR2 / RFU, WDSUB1 / Fold change vs veh, WDSUB1 / Fold change vs veh, HSP90B1 /// MIR3652 / RFU, ADSS / Fold change vs veh, ADSS / RFU, GK / Fold change vs veh, GK / RFU, ZNF148 / Fold change vs veh, ZNF148 / RFU, TAF9 / Fold change vs veh, TAF9 / RFU, SLC1A5 / Fold change vs veh, SLC1A5 / RFU, SLMO2 / Fold change vs veh, SLMO2 / RFU, ABCC4 / Fold change vs veh, ABCC4 / RFU, LOC101060439 /// RAP1B / Fold change vs veh, LOC101060439 /// RAP1B / RFU, RFX7 / Fold change vs veh, RFX7 / RFU, GTPBP10 / Fold change vs veh, GTPBP10 / RFU, CNEP1R1 / Fold change vs veh, CNEP1R1 / RFU, BIVM-ERCC5 /// ERCC5 / Fold change vs veh, BIVM-ERCC5 /// ERCC5 / RFU, ILF3 / Fold change vs veh, ILF3 / RFU 11762660_at / Fold change /veh 11762660_at / RFU VCAN (11757783_s_at) / Fold change /veh VCAN (11757783_s_at) / RFU DDX43 (11728927_at) / Fold change /veh DDX43 (11728927_at) / RFU KRT8 (11758188_x_at) / Fold change /veh KRT8 (11758188_x_at) / RFU NKD1 (11759106_at) / Fold change /veh NKD1 (11759106_at) / RFU SRD5A1 (11742802_a_at) / Fold change /veh SRD5A1 (11742802_a_at) / RFU TPSAB1 /// TPSB2 (11721975_s_at) / Fold change /veh TPSAB1 /// TPSB2 (11721975_s_at) / RFU GSTM3 (11746129_a_at) / Fold change /veh GSTM3 (11746129_a_at) / RFU IL23R (11737362_x_at) / Fold change /veh IL23R (11737362_x_at) / RFU TMEM51 (11727254_a_at) / Fold change /veh TMEM51 (11727254_a_at) / RFU PIWIL2 (11732686_x_at) / Fold change /veh PIWIL2 (11732686_x_at) / RFU ORM1 (11744905_x_at) / Fold change /veh ORM1 (11744905_x_at) / RFU CCDC152 (11743942_at) / Fold change /veh CCDC152 (11743942_at) / RFU ECM1 (11717891_a_at) / Fold change /veh ECM1 (11717891_a_at) / RFU IL23R (11748794_a_at) / Fold change /veh IL23R (11748794_a_at) / RFU TNFAIP8L3 (11732012_x_at) / Fold change /veh TNFAIP8L3 (11732012_x_at) / RFU MBOAT4 (11741988_at) / Fold change /veh MBOAT4 (11741988_at) / RFU 11764193_at / Fold change /veh 11764193_at / RFU TMEM53 (11763286_at) / Fold change /veh TMEM53 (11763286_at) / RFU MAGEB2 (11727129_at) / Fold change /veh MAGEB2 (11727129_at) / RFU TMEM200A (11744735_a_at) / Fold change /veh TMEM200A (11744735_a_at) / RFU CCDC152 (11751479_a_at) / Fold change /veh CCDC152 (11751479_a_at) / RFU FAM211A (11726209_a_at) / Fold change /veh FAM211A (11726209_a_at) / RFU RGS16 (11746705_a_at) / Fold change /veh RGS16 (11746705_a_at) / RFU VCAN (11755009_s_at) / Fold change /veh VCAN (11755009_s_at) / RFU RHOB (11743442_s_at) / Fold change /veh RHOB (11743442_s_at) / RFU RGS16 (11720943_a_at) / Fold change /veh RGS16 (11720943_a_at) / RFU RGS16 (11720944_at) / Fold change /veh RGS16 (11720944_at) / RFU, VPS4B / Fold change vs veh, VPS4B / RFU, CREB1 / Fold change vs veh, CREB1 / RFU, DNAJC13 / Fold change vs veh, DNAJC13 / RFU, GNAQ / Fold change vs veh, GNAQ / RFU, CDK5R1 / Fold change vs veh, CDK5R1 / RFU, ZRANB3 / Fold change vs veh, ZRANB3 / RFU, CUL4A / Fold change vs veh, CUL4A / RFU, CCNY / Fold change vs veh, CCNY / RFU, UFL1 / Fold change vs veh, UFL1 / RFU, COG3 / Fold change vs veh, COG3 / RFU, DIAPH2 / Fold change vs veh, DIAPH2 / RFU, SKA2 / Fold change vs veh, SKA2 / RFU, AFF3 / Fold change vs veh, AFF3 / RFU, LMF1 / Fold change vs veh, LMF1 / RFU, IPO11 / Fold change vs veh, IPO11 / RFU, DFFB / Fold change vs veh, DFFB / RFU, FOXP1 / Fold change vs veh, FOXP1 / RFU, CARD8 / Fold change vs veh, CARD8 / RFU, STRN3 / Fold change vs veh, STRN3 / RFU, ADK / Fold change vs veh, ADK / RFU, RASSF2 / Fold change vs veh, RASSF2 / RFU, WIPF1 / Fold change vs veh, WIPF1 / RFU, LARP1B / Fold change vs veh, LARP1B / RFU, RASA1 / Fold change vs veh, RASA1 / RFU, RB1 / Fold change vs veh, RB1 / RFU, PPFIA1 / Fold change vs veh, PPFIA1 / RFU, MAT2A / Fold change vs veh, MAT2A / RFU, CCT5 / Fold change vs veh, CCT5 / RFU, WDR92 / Fold change vs veh, WDR92 / RFU, CUX1 / Fold change vs veh, CUX1 / RFU, TTC7A / Fold change vs veh, TTC7A / RFU, TMEM135 / Fold change vs veh, TMEM135 / RFU, DEPTOR / Fold change vs veh, DEPTOR / RFU, CPM / Fold change vs veh, CPM / RFU, DNAJB6 / Fold change vs veh, DNAJB6 / RFU, CACNA2D3 / Fold change vs veh, CACNA2D3 / RFU, DTX4 / Fold change vs veh, DTX4 / RFU, TFCP2 / Fold change vs veh, TFCP2 / RFU, GMCL1 /// GMCL1P1 / Fold change vs veh, GMCL1 /// GMCL1P1 / RFU, AEBP2 / Fold change vs veh, AEBP2 / RFU, SNHG1 /// SNORD22 /// SNORD25 /// SNORD26 /// SNORD27 /// SNORD28 /// SNORD29 /// SNORD31 / Fold change vs veh, SNHG1 /// SNORD22 /// SNORD25 /// SNORD26 /// SNORD27 /// SNORD28 /// SNORD29 /// SNORD31 / Fold change (Aza/veh), C12orf56 (ProbeSet 11735607_a_at) / Fold change (ACY-1035/veh), C12orf56 (ProbeSet 11735607_a_at) / Fold change (Aza/veh), FGFR1OP (ProbeSet 11751329_s_at) / Fold change (ACY-1035/veh), FGFR1OP (ProbeSet 11751329_s_at) / Fold change (Aza/veh), VPS36 (ProbeSet 11739960_a_at) / Fold change (ACY-1035/veh), VPS36 (ProbeSet 11739960_a_at) / RFU SYPL1 (11715823_x_at) / Fold change /veh SYPL1 (11715823_x_at) / RFU IGFBP7 (11715501_s_at) / Fold change /veh IGFBP7 (11715501_s_at) / RFU REEP3 (11722064_at) / Fold change /veh REEP3 (11722064_at) / RFU IGLL1 (11728026_x_at) / Fold change /veh IGLL1 (11728026_x_at): dose or concentration left out as unconfirmed
Conditions: ProbeSet 11727641_at; LIST B

Nc1ncn([C@@H]2O[C@H](CO)[C@@H](O)[C@H]2O)c(=O)n1 [azacitidine]
Fold change vs veh, NOM1: 1.06
